What was measured:
Format in all cases: cell-based
Conditions in all cases: 18 hours incubation
[1] = system: Clostridium difficile ATCC 17858; experiment: In vitro antibacterial activity, standard agar dilution (MIC)
[2] = system: Streptococcus b-hemolyticus VGH 84-60; experiment: as above
[3] = system: Bacteroides vulgaris ATCC 29327; experiment: as above
[4] = system: Streptococcus pneumoniae K 84-21; experiment: as above
[5] = system: Peptococcus magnus ATCC 29328; experiment: as above
[6] = system: Clostridium perfringens ATCC 13124
[7] = system: Peptococcus magnus ATCC 14956; experiment: In vitro antibacterial activity, standard agar dilution (MIC)
[8] = system: Peptococcus asaccharolyticus ATCC 29743; experiment: as above
[9] = system: Streptococcus b-hemolyticus VGH 84-62; experiment: as above
[10] = system: Streptococcus pneumoniae SV-1; experiment: as above
[11] = system: Streptococcus b-hemolyticus VGH 0.5; experiment: as above
[12] = system: Streptococcus b-hemolyticus C 203; experiment: as above

Compound	Minimal Inhibitory Concentration [1]	Minimal Inhibitory Concentration [2]	Minimal Inhibitory Concentration [3]	Minimal Inhibitory Concentration [4]	Minimal Inhibitory Concentration [5]	Minimal Inhibitory Concentration [6]	Minimal Inhibitory Concentration [7]	Minimal Inhibitory Concentration [8]	Minimal Inhibitory Concentration [9]	Minimal Inhibitory Concentration [10]	Minimal Inhibitory Concentration [11]	Minimal Inhibitory Concentration [12]
Methyl Ester of LL-E19020α [Compound II]	2 µg/mL	0.5 µg/mL	128 µg/mL	8 µg/mL	≤ 0.06 µg/mL	64 µg/mL	≤ 0.06 µg/mL	≤ 0.06 µg/mL	2 µg/mL	4 µg/mL	2 µg/mL	0.12 µg/mL
Monosaccharide of Methyl Ester of LL-E19020α [Compound IV]	8 µg/mL	2 µg/mL	> 128 µg/mL	16 µg/mL	≤ 0.06 µg/mL	> 128 µg/mL	≤ 0.06 µg/mL	≤ 0.06 µg/mL	8 µg/mL	16 µg/mL	8 µg/mL	4 µg/mL
Aglycone Methyl Ester of LL-E19020β [Compound VI]		> 128 µg/mL	> 128 µg/mL	> 128 µg/mL	0.5 µg/mL	> 128 µg/mL	0.5 µg/mL	0.5 µg/mL	> 128 µg/mL	> 128 µg/mL	> 128 µg/mL	> 128 µg/mL
Methyl Ester of LL-E19020β [Compound III]	8 µg/mL	2 µg/mL	16 µg/mL	32 µg/mL	≤ 0.06 µg/mL	> 128 µg/mL	≤ 0.06 µg/mL	≤ 0.06 µg/mL	8 µg/mL	8 µg/mL	8 µg/mL	2 µg/mL
C/C=C\C=C\C1OC(O)(C(CNC(=O)Cc2ccccc2)C(=O)NC/C=C/C=C(\C)C(OC)C(C)C2CC(O)C(/C=C/C=C/C=C/C(=O)O)O2)C(O)C(O)C1(C)C (stereo not drawn) [Compound I, Ammonolysis Product of LL-E19020 α and β]	4 µg/mL	4 µg/mL	128 µg/mL	> 128 µg/mL	0.25 µg/mL	> 128 µg/mL	≤ 0.06 µg/mL	0.25 µg/mL	16 µg/mL	64 µg/mL	16 µg/mL	8 µg/mL
Monosaccharide of Methyl Ester of LL-E19020β [Compound V]	64 µg/mL	8 µg/mL	> 128 µg/mL	64 µg/mL	≤ 0.06 µg/mL	> 128 µg/mL	≤ 0.06 µg/mL	≤ 0.06 µg/mL	32 µg/mL	32 µg/mL	32 µg/mL	8 µg/mL
